Measurements from patent publication US11214540B2, “Compositions for treating neurodegenerative diseases” (COGNITION THERAPEUTICS, INC., priority 2017, dated 2022).

Tests used:
[1] = Mouse liver microsome (MLM) stability; type: in vitro ADME; details: microsomal stability in mouse liver microsomes (MLM)
Experimental: A first pharmacokinetic study was performed in microsomes of mice mouse liver microsomes, MLM).
Microsomal stability experiments and plasma stability experiments were performed to determine metabolic and hepatic stability of candidate compounds.

[2] = tested on: Abeta oligomer-induced membrane trafficking deficits in primary hippocampal neurons; assay: Membrane Trafficking/Exocytosis (MTT) assay, Abeta oligomer effect on neurons; type: cell-based, rat; details: membrane trafficking; read-out: EC50 Abeta;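 note: compound potency for inhibiting the Abeta oligomer effect on exocytosis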
In short: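 Rat E18 hippocampal neurons cultured 3 weeks received compound (100 uM to 0.001 nM), then vehicle or Abeta 1-42 oligomers (3 μM total Abeta), for 1-24 h at 37 °C. MTT was added for 1 h, and formazan vesicle exocytosis was quantified by automated imaging with DAPI toxicity check. Tukey-Kramer comparisons were made with N=4.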

[3] = biological target: Sigma-1 receptors on Jurkat cell membranes (Homo sapiens (Human), UniProt Q99720); assay: Competitive Radioligand Binding Assay 1, Sigma-1 binding ([3H](+)pentazocine displacement); details: sigma-1 receptor affinity; read-out: S1 Ki
Chain of Sigma-1 receptors on Jurkat cell membranes (Q99720 whole entry): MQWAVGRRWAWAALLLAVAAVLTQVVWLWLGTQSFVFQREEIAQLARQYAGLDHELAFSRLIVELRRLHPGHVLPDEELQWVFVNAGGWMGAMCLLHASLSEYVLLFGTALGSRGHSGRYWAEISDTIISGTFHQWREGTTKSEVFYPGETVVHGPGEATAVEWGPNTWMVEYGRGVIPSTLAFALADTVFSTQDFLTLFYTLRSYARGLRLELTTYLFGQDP
Experimental: Certain compounds were tested for interaction with several receptors by blocking the binding or action of their agonists or antagonists. Some compounds were tested to see whether they interact directly with known cellular receptor or signaling proteins. Compounds can be tested for the ability to displace binding of known agonists or antagonists of a given human receptor that was overexpressed in cell lines or isolated from tissue. Compounds can also be tested for the ability to block downstream signaling induced by agonists or antagonists of a given human receptor. Compounds can be tested for action at 100 known receptors, and it is desirable that specific activity will occur at only a small subset of CNS-relevant receptors.
For Sigma-1 binding, various concentrations of test compounds from 100 μM to 1 nM were used to displace 8 nM [3H](+)pentazocine from endogenous receptors on Jurkat cell membranes (Ganapathy M E et al. 1991, J Pharmacol. Exp. Ther. 289:251-260). 10 μM Haloperidol was used to define non-specific binding. […] (Bowen W D, et al. 1993, Mol. Neuropharmcol 3:117-126). 10 μM Haloperidol was used to define non-specific binding. Reactions were terminated by rapid filtration through Whatman GF/C filters using a Brandel 12R cell harvester followed by two washes with ice-cold buffer. Radioactivity on the dried filter discs was measured using a liquid scintillation analyzer (Tri-Carb 2900TR; PerkinElmer Life and Analytical Sciences). The displacement curves were plotted and the Ki values of the test compounds for the receptor subtypes were determined using GraphPad Prism (GraphPad Software Inc., San Diego, Calif.). The percentage specific binding was determined by dividing the difference between total bound (disintegrations per minute) and nonspecific bound (disintegrations per minute) by the total bound (disintegrations per minute). […]

log P = type: physicochemical
In short: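 Ratio of un-ionized compound concentrations between octanol and water, with aqueous pH set so the un-ionized form predominates. Value given as the log of the octanol/water ratio.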

[4] = biological target: Sigma-2 receptors on membranes from rat cerebral cortex (Rattus norvegicus (Rat), UniProt Q5U3Y7); assay: Competitive Radioligand Binding Assay 1, Sigma-2 binding ([3H]DTG displacement with (+)pentazocine mask); details: sigma-2 receptor affinity; read-out: S2 Ki
Chain of Sigma-2 receptors on membranes from rat cerebral cortex (Q5U3Y7 whole entry): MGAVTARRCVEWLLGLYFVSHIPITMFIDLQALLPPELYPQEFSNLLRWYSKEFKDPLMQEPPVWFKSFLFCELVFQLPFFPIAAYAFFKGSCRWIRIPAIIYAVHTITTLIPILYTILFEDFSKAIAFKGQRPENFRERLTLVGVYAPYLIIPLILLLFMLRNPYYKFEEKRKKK
Experimental: Using the same protocol, some compounds for which membrane trafficking data are given in Table 1 were tested for recognition of sigma-2 receptor. Certain compounds preferentially bind to the sigma-2 receptor.
For Sigma-1 binding, various concentrations of test compounds from 100 μM to 1 nM were used to displace 8 nM [3H](+)pentazocine from endogenous receptors on Jurkat cell membranes (Ganapathy M E et al. 1991, J Pharmacol. Exp. Ther. 289:251-260). 10 μM Haloperidol was used to define non-specific binding. […] (Bowen W D, et al. 1993, Mol. Neuropharmcol 3:117-126). 10 μM Haloperidol was used to define non-specific binding. Reactions were terminated by rapid filtration through Whatman GF/C filters using a Brandel 12R cell harvester followed by two washes with ice-cold buffer. Radioactivity on the dried filter discs was measured using a liquid scintillation analyzer (Tri-Carb 2900TR; PerkinElmer Life and Analytical Sciences). The displacement curves were plotted and the Ki values of the test compounds for the receptor subtypes were determined using GraphPad Prism (GraphPad Software Inc., San Diego, Calif.). The percentage specific binding was determined by dividing the difference between total bound (disintegrations per minute) and nonspecific bound (disintegrations per minute) by the total bound (disintegrations per minute).
Affinities for Sigma-1 and Sigma-2 receptors are typically obtained from published studies using cerebral tissue homogenates with [3H](+)pentazocine to measure displacement from Sigma-1 receptors and [3H] 1,3-Di-(2-tolyl)guanidine in the presence of 300 nM (+)pentazocine to measure displacement from Sigma-2 receptors.

potassium channel hERG = potassium channel hERG (Homo sapiens (Human), UniProt Q12809); assay: In vitro testing for hERG inhibition; type: biochemical; details: in vitro toxicity potassium channel hERG
Chain of potassium channel hERG (Q12809 whole entry): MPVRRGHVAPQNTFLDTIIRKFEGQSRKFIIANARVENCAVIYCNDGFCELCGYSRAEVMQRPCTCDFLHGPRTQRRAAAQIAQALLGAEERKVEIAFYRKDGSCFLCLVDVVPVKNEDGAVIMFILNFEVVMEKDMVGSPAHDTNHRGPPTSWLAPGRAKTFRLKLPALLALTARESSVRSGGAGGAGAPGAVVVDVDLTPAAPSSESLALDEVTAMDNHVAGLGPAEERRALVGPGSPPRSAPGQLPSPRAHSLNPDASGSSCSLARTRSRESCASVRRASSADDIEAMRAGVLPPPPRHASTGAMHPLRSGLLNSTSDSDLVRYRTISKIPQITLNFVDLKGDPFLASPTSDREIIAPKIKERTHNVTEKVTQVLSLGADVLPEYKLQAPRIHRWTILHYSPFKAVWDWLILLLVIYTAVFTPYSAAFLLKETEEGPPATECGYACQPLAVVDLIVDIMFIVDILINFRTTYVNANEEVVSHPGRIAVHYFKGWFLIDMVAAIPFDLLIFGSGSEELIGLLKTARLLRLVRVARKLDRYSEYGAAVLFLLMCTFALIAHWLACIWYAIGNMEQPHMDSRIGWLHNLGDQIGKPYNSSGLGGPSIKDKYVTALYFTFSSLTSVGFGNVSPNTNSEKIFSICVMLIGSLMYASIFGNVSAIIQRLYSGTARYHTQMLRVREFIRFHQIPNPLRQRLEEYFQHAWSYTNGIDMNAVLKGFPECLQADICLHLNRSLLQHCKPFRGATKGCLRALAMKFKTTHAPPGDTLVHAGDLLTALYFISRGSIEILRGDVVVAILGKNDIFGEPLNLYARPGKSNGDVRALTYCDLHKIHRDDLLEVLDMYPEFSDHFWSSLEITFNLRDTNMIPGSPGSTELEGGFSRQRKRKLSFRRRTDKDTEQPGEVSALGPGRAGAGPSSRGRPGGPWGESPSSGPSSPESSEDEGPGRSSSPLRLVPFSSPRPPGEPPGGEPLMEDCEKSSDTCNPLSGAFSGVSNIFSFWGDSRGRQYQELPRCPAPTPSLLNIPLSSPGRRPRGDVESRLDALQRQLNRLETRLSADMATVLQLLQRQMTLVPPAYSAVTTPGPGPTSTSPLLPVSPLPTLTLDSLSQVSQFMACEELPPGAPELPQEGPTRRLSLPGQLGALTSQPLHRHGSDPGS
Experimental: In vitro testing for hERG inhibition was performed in a standard assay (See: Haverkamp W, Breithardt G, Carnm A J, Janse M J, Rosen M R, Antzelevitch C, Escande D, Franz M, Malik M, Moss A and Shah R. (2000) Eur Heat J 21 (15); 1216-31).

Compound | MLM T1/2 [1] | EC50 [2] [µM] | Ki [3] [µM] | log P (log P) | Ki [4] [µM] | IC50 (potassium channel hERG) [µM]
CC(C)=CC(CC(C)(C)c1ccc(C(F)(F)F)cc1)N1CCC(O)CC1 (centres unmarked) [Compound 38] | 84 min | 4.5 | 0.19 | 4.85 | 0.042 | 16.2
CC(C)=CC(CC(C)(C)c1ccc(C(F)(F)F)cc1)N1CCC(CCO)CC1 (centres unmarked) [Compound 28] | 60 min | 4 | 0.0061 | 5.68 | 0.018 | 10.2
CC(C)=CC(CC(C)(C)c1ccc(Cl)cc1)N1CCC(C)(C)CC1 (centres unmarked) [Compound 31] | 21 min | 0.7 | 0.041 | 6.7 | 0.028 | 10.9
COc1ccc(CCC(C=C(C)C)N2CCOCC2)cc1 (centres unmarked) [Compound 104] | 1.3 min | 20 |  | 3.69 |  | 
CC(C)=CC(CC(C)(C)c1ccc(C)cc1)N(C)C1CCOCC1 (centres unmarked) [Compound 109] | 5.4 min | 20 |  | 5.13 |  | 
CC(C)=CC(CC(C)(C)c1ccc(Cl)cc1)N1CCC(C2CCN(C)CC2)CC1 (centres unmarked) [Compound 43] | 29 min | 0.3 | 0.061 | 6.37 | 0.074 | 4.9
CC(C)=CC(CC(C)(C)c1ccc(Cl)cc1)N1CCC2(CCOCC2)CC1 (centres unmarked) [Compound 41] | 35 min | 1.6 | 0.016 | 5.87 | 0.067 | 4
CC(C)=CC(CC(C)(C)c1ccc(S(C)(=O)=O)cc1)N1CCC2(CCOCC2)CC1 (centres unmarked) [Compound 82] | 60 min | 20 | 0.38 | 4.11 | 2.8 | 100
CC(C)=CC(CC(C)(C)c1ccc(Cl)cc1)N1CCC(C)(O)CC1 (centres unmarked) [Compound 73] | 87 min | 0.7 | 0.029 | 4.86 | 0.41 | 24
CC(C)=CC(CC(C)(C)c1ccc(C(F)(F)F)cc1)N1CCOCC1 (centres unmarked) [Compound 72] | 2.1 min | 20 | 0.77 | 5.32 | 0.4 | 80
CC(C)=CC(CCc1ccc(Cl)cc1)N1CCCCC1 (centres unmarked) [Compound 96] | 6.2 min | 1.6 |  | 5.52 |  | 
CC(C)=CC(CC(C)(C)c1ccc(C)cc1)NCCC1CCOCC1 (centres unmarked) [Compound 101] | 1.8 min | 9.6 |  | 5.57 |  | 
COc1ccc(C(C)(C)CC(C=C(C)C)N2CCC3(CCOCC3)CC2)cc1 (centres unmarked) [Compound 98] | 1.7 min | 20 |  | 5.11 |  | 
COc1ccc(C(C)(C)CC(C=C(C)C)NCCCC2CCOCC2)cc1 (centres unmarked) [Compound 106] | 3.9 min | 20 |  | 5.35 |  | 
CC(C)=CC(CCc1ccc(Cl)cc1)N1CCC(C2CCOCC2)CC1 (centres unmarked) [Compound 105] | 1.3 min | 20 |  | 5.72 |  | 
CC(C)=CC(CC(C)(C)c1ccc(C)cc1)N1CCC2(CCOCC2)CC1 (centres unmarked) [Compound 97] | 8.7 min | 10 |  | 5.78 |  | 
CC(C)=CC(CCc1ccc(C)cc1)N1CCCCC1 (centres unmarked) [Compound 94] | 1.8 min | 20 |  | 5.43 |  | 
CC(C)=CC(CC(C)(C)c1ccc(Cl)cc1)N1CCC(C2CCOCC2)CC1 (centres unmarked) [Compound 11] | 26, min. | 3 |  | 6.31 | 0.0022 | 1.5
COc1ccc(C(C)(C)CC(C=C(C)C)N(C)CCCC2CCOCC2)cc1 (centres unmarked) [Compound 110] | 2.6 min | 20 |  | 5.73 |  | 
CC(C)=CC(CCc1ccc(Cl)cc1)N1CCOCC1 (centres unmarked) [Compound 95] | 1.5 min | 20 |  | 4.45 |  | 
COc1ccc(C(C)(C)CC(C=C(C)C)N(C)CC2CCOCC2)cc1 (centres unmarked) [Compound 113] | 8.2 min | 20 |  | 4.92 |  | 
CC(C)=CC(CCc1ccc(C)cc1)N1CCOCC1 (centres unmarked) [Compound 93] | 3.4 min | 20 |  | 4.36 |  | 
CC(C)=CC(CC(C)(C)c1ccc(Cl)cc1)N(C)CC1CCOCC1 (centres unmarked) [Compound 111] | 6.8 min | 20 |  | 5.68 |  | 
COc1ccc(C(C)(C)CC(C=C(C)C)NC2CCOCC2)cc1 (centres unmarked) [Compound 99] | 7.4 min | 20 |  | 4.08 |  | 
CC(C)=CC(CC(C)(C)c1ccc(C)cc1)NC1CCOCC1 (centres unmarked) [Compound 100] | 4.5 min | 13.6 |  | 4.75 |  | 
COc1ccc(C(C)(C)CC(C=C(C)C)NCCC2CCOCC2)cc1 (centres unmarked) [Compound 102] | 1.5 min | 20 |  | 4.9 |  | 
COc1ccc(CCC(C=C(C)C)N2CCCCC2)cc1 (centres unmarked) [Compound 103] | 1.1 min | 20 |  | 4.76 |  | 
COc1ccc(C(C)(C)CC(C=C(C)C)N(C)C2CCOCC2)cc1 (centres unmarked) [Compound 108] | 7.3 min | 20 |  | 4.46 |  | 
